Earlier results as cited in patent publication US8197846B2, “Sustained release pharmaceutical composition” (Astellas Pharma Inc., priority 2003, dated 2012).
Structures can show the parent of a compound that is named as a salt.

Assays:
[1] = not given; remark: listed apart in the source

Row | frequency of orthostatic syncope, headache and sleepiness (package insert, psychoneural area) | day on which plasma concentration profiles reached the steady state ([1]; repeated administration per os for seven days) [days] | Compound | adverse reactions when administered as powder triturated with lactose (powder triturated with lactose) | adverse reactions (including abnormal clinical data) presumably related to the agent (104 cases among 4724 cases, approval and post marketing surveillance in Japan) [%] | frequency of hypotension, postural hypotension, blood pressure, tachycardia and palpitation (package insert, circulatory area) | Cmax and AUC versus dose ([1]; 0.1 to 0.6 mg oral, healthy adult volunteers)
1 | – | – | CCOc1ccccc1OCCN[C@H](C)Cc1ccc(OC)c(S(N)(=O)=O)c1 [Tamsulosin, (R)(−)-5-[2-[[2-(o-ethoxyphenoxy)ethyl]-amino]propyl]-2-methoxybenzenesulfonamide] | postural hypotension was induced | – | – | –
2 | less than 0.1% | 4 | CCOc1ccccc1OCCN[C@H](C)Cc1ccc(OC)c(S(N)(=O)=O)c1 [tamsulosin hydrochloride] | – | 2.2 | less than 0.1% | increased almost in proportion to the dose administered
